# Experimental data: US7485633B2, “Cyclopropyl fused indolobenzazepine HCV NS5B inhibitors” (Bristol-Myers Squibb Company, priority 2005, dated 2009)
# Tested on: HCV replicon cells
# Assay: HCV replicon FRET assay
# Assay type: cell-based
# Conditions: Hepatitis C virus
# Excerpt: FRET Assay Preparation. To perform the HCV FRET screening assay, 96-well cell culture plates were used. The FRET peptide (Anaspec, Inc.) (Taliani et al., Anal. Biochem. 1996, 240, 60-67) contains a fluorescence donor, EDANS, near one end of the peptide and an acceptor, DABCYL, near the other end. The fluorescence of the peptide is quenched by […] resonance energy transfer (RET) between the donor and the acceptor, but as the NS3 protease cleaves the peptide the products are released from RET quenching and the fluorescence of the donor becomes apparent. The assay reagent was made as follows: 5× cell Luciferase cell culture lysis reagent from Promega (#E153A) diluted to 1× with dH2O, NaCl added to 150 mM final, the FRET peptide diluted to 20 uM final from a 2 mM stock.
# To prepare plates, HCV replicon cells, with or without a Renilla luciferase reporter gene, were trypsinized and placed into each well of a 96-well plate with titrated test compounds added in columns 3 through 12; columns 1 and 2 contained a control compound (HCV protease inhibitor), and the bottom row contained cells without compound. The plates were then placed in a CO2 incubator at 37° C.
# Assays. Subsequent to addition of the test compounds described above (FRET Assay Preparation), at various times the plate was removed and Alamar blue solution (Trek Diagnostics, #00-100) was added per well as a measure of cellular toxicity. After reading in a Cytoflour 4000 instrument (PE Biosystems), plates were rinsed with PBS and then used for FRET assay by the addition of 30 ul of the FRET peptide assay reagent described above (FRET Assay Preparation) per well. The plate was then placed into the Cytoflour 4000 instrument which had been set to 340 excite/490 emission, automatic mode for 20 cycles and the plate read in a kinetic mode. Typically, the signal to noise using an endpoint analysis after the reads was at least three-fold. Alternatively, after Alamar blue reading, plates were rinsed with PBS, 50 ul of DMEM (high glucose) without phenol red was added and plates were then used for luciferase assay using the Promega Dual-Glo Luciferase Assay System.
# Compound analysis was determined by quantification of the relative HCV replicon inhibition and the relative cytotoxicity values. To calculate cytoxicity values, the average Alamar Blue fluorescence signals from the control wells were set as 100% non-toxic. The individual signals in each of the compound test wells were then divided by the average control signal and multiplied by 100% to determine […]. To calculate the HCV replicon inhibition values, an average background value was obtained from the two wells containing the highest amount of HCV protease inhibitor at the end of the assay period. These numbers were similar to those obtained from naïve Huh-7 cells.
# The background numbers were then subtracted from the average signal obtained from the control wells and this number was used as 100% activity. The individual signals in each of the compound test wells were then divided by the averaged control values after background subtraction and multiplied by 100% to determine percent activity. EC50 values for a protease inhibitor titration were calculated as the concentration which caused a 50% reduction in FRET or luciferase activity. The two numbers generated for the compound plate, percent cytoxicity and percent activity were used to determine compounds of interest for further analysis.
row,Molecule,EC50
1,COC(=O)C12CC1c1cc(OC)ccc1-c1c(C3CCCCC3)c3ccc(C(=O)O)cc3n1C2 (centres unmarked),1000 to 10000 nM
2,"CN(C)S(=O)(=O)NC(=O)c1ccc2c(C3CCCCC3)c3n(c2c1)C[C@]1(C(=O)N2CCOCC2)C[C@@H]1c1ccccc1-3 (single isomer, unassigned)",20 to 1000 nM
3,COC[C@@H]1CN(C(=O)C23CC2c2cc(OC)ccc2-c2c(C4CCCCC4)c4ccc(C(=O)NS(=O)(=O)N(C)C)cc4n2C3)CCO1 (some centres unmarked) [listing 1 of 2 here],20 to 1000 nM
4,COc1ccc2c(c1)C1CC1(C(=O)N1C[C@@H](C)N[C@@H](C)C1)Cn1c-2c(C2CCCCC2)c2ccc(C(=O)NS(=O)(=O)N(C)C)cc21 (some centres unmarked),20 to 1000 nM
5,CN(C)S(=O)(=O)NC(=O)c1ccc2c(C3CCCCC3)c3n(c2c1)CC1(C(=O)N2CCOCC2)CC1c1ccccc1-3 (centres unmarked),20 to 1000 nM
6,"CN(C)S(=O)(=O)NC(=O)c1ccc2c(C3CCCCC3)c3n(c2c1)C[C@@]1(C(=O)N2CCOCC2)C[C@H]1c1ccccc1-3 (single isomer, unassigned)",20 to 1000 nM
7,"O=C(O)c1ccc2c(C3CCCCC3)c3n(c2c1)C[C@]1(C(=O)N2CCOCC2)C[C@@H]1c1ccccc1-3 (single isomer, unassigned)",20 to 1000 nM
8,"O=C(O)c1ccc2c(C3CCCCC3)c3n(c2c1)C[C@@]1(C(=O)N2CCOCC2)C[C@H]1c1ccccc1-3 (single isomer, unassigned)",20 to 1000 nM
9,COc1ccc2c(c1)C1CC1(C(=O)N1C[C@@H](C)O[C@@H](C)C1)Cn1c-2c(C2CCCCC2)c2ccc(C(=O)NS(=O)(=O)N(C)C)cc21 (some centres unmarked),20 to 1000 nM
10,COc1ccc2c(c1)C1CC1(C(=O)N1CCOCC1)Cn1c-2c(C2CCCCC2)c2ccc(C(=O)NS(=O)(=O)N(C)C)cc21 (centres unmarked),20 to 1000 nM
11,COC[C@H]1CN(C(=O)C23CC2c2cc(OC)ccc2-c2c(C4CCCCC4)c4ccc(C(=O)NS(=O)(=O)N(C)C)cc4n2C3)CCO1 (some centres unmarked),20 to 1000 nM
12,COC(=O)c1ccc2c(C3CCCCC3)c3n(c2c1)CC1(C(=O)OC)CC1c1cc(OC)ccc1-3 (centres unmarked),20 to 1000 nM
13,O=C(O)c1ccc2c(C3CCCCC3)c3n(c2c1)CC1(C(=O)N2CCOCC2)CC1c1ccccc1-3 (centres unmarked),20 to 1000 nM
14,COC[C@@H]1CN(C(=O)C23CC2c2cc(OC)ccc2-c2c(C4CCCCC4)c4ccc(C(=O)NS(=O)(=O)N(C)C)cc4n2C3)CCO1 (some centres unmarked) [listing 2 of 2 here],97 to 1000 nM

# Same assay, conditions: Hepatitis C virus, HCV replicon cells, FRET assay; read-out: EC50
row,Molecule,EC50
1,COc1ccc2c(c1)C1CC1(C(=O)N1CCOCC1)Cn1c-2c(C2CCCCC2)c2ccc(C(=O)O)cc21 (centres unmarked),20 to 1000 nM
2,C[C@@H]1CN(C(=O)C23CC2c2cc(OCc4ccccc4)ccc2-c2c(C4CCCCC4)c4ccc(C(=O)NS(=O)(=O)N(C)C)cc4n2C3)C[C@H](C)O1 (some centres unmarked),20 to 1000 nM
3,COc1ccc2c(c1OCc1ccccc1)C1CC1(C(=O)O)Cn1c-2c(C2CCCCC2)c2ccc(C(=O)NS(=O)(=O)N(C)C)cc21 (centres unmarked),> 1000 nM
4,COc1ccc2c(c1)C1CC1(C(=O)N1CCOC(CN(C)C)C1)Cn1c-2c(C2CCCCC2)c2ccc(C(=O)NS(=O)(=O)C3CC3)cc21 (centres unmarked),20 to 1000 nM
5,COC(=O)c1ccc2c(C3CCCCC3)c3n(c2c1)CC1(C(=O)N2CCOCC2)CC1c1ccccc1-3 (centres unmarked),20 to 1000 nM
6,C=Cc1ccc2c(c1)C1CC1(C(=O)N1CCOCC1)Cn1c-2c(C2CCCCC2)c2ccc(C(=O)O)cc21 (centres unmarked),20 to 1000 nM
7,COc1ccc2c(c1)C1CC1(C(=O)N1CCOCC1)Cn1c-2c(C2CCCCC2)c2ccc(C(=O)NS(=O)(=O)N3CCOCC3)cc21 (centres unmarked),20 to 1000 nM
8,COc1ccc2c(c1)C1CC1(C(=O)N1CCC(N3CCOCC3)CC1)Cn1c-2c(C2CCCCC2)c2ccc(C(=O)O)cc21 (centres unmarked),20 to 1000 nM
9,CN(C)S(=O)(=O)NC(=O)c1ccc2c(C3CCCCC3)c3n(c2c1)CC1(C(=O)N2CCOCC2)CC1c1cc(O)ccc1-3 (centres unmarked),20 to 1000 nM
10,COC(=O)C12CC1c1cc(O)ccc1-c1c(C3CCCCC3)c3ccc(C(=O)NS(=O)(=O)N(C)C)cc3n1C2 (centres unmarked),20 to 1000 nM
11,CCN(C)CCN(C)C(=O)C12CC1c1cc(OC)ccc1-c1c(C3CCCCC3)c3ccc(C(=O)NS(=O)(=O)N(C)C)cc3n1C2 (centres unmarked),97 to 1000 nM
12,CC(C)Oc1ccc2c(c1)C1CC1(C(=O)N1CCOCC1)Cn1c-2c(C2CCCCC2)c2ccc(C(=O)O)cc21 (centres unmarked),20 to 1000 nM
13,COc1ccc2c(c1)C1CC1(C(=O)N1C[C@@H](C)O[C@@H](C)C1)Cn1c-2c(C2CCCCC2)c2ccc(C(=O)NS(C)(=O)=O)cc21 (some centres unmarked),97 to 1000 nM
14,CCN(CC)C(=O)CN(C)C(=O)C12CC1c1cc(OC)ccc1-c1c(C3CCCCC3)c3ccc(C(=O)NS(=O)(=O)N(C)C)cc3n1C2 (centres unmarked),20 to 1000 nM
15,"COc1ccc2c(c1)C1C[C@@]1(C(=O)O)Cn1c-2c(C2CCCCC2)c2ccc(C(=O)NS(=O)(=O)N(C)C)cc21 (single isomer, unassigned)",1000 to 10000 nM
16,CC(C)c1ccc2c(c1)C1CC1(C(=O)N1CCOCC1)Cn1c-2c(C2CCCCC2)c2ccc(C(=O)O)cc21 (centres unmarked),20 to 1000 nM
17,COc1ccc2c(c1)C1CC1(C(=O)N1C[C@@H](C)O[C@@H](C)C1)Cn1c-2c(C2CCCCC2)c2ccc(C(=O)O)cc21 (some centres unmarked),20 to 1000 nM
18,COc1ccc2c(c1)[C@@H]1C[C@]1(C(=O)N1CCCC[C@@H]1CN(C)C)Cn1c-2c(C2CCCCC2)c2ccc(C(=O)NS(=O)(=O)N(C)C)cc21,97 to 1000 nM

row,Molecule,EC50
1,C[C@@H]1CN(C(=O)C23CC2c2cc(O)ccc2-c2c(C4CCCCC4)c4ccc(C(=O)NS(=O)(=O)N(C)C)cc4n2C3)C[C@H](C)O1 (some centres unmarked),20 to 1000 nM
2,COc1ccc2c(c1)C1CC1(C(=O)N1CCOCC1)Cn1c-2c(C2CCCCC2)c2ccc(C(=O)NS(=O)(=O)N3CCN(C)CC3)cc21 (centres unmarked),20 to 1000 nM
3,Cc1ccc2c(c1)C1CC1(C(=O)N1CCOCC1)Cn1c-2c(C2CCCCC2)c2ccc(C(=O)O)cc21 (centres unmarked),20 to 1000 nM
4,CCOc1ccc2c(c1)C1CC1(C(=O)N1CCOCC1)Cn1c-2c(C2CCCCC2)c2ccc(C(=O)O)cc21 (centres unmarked),20 to 1000 nM
5,CCN(CC)C1CCN(C(=O)C23CC2c2cc(OC)ccc2-c2c(C4CCCCC4)c4ccc(C(=O)NS(=O)(=O)N(C)C)cc4n2C3)CC1 (centres unmarked),20 to 1000 nM
6,COc1ccc2c(c1)C1CC1(C(=O)N1CCC(N3CCOCC3)CC1)Cn1c-2c(C2CCCCC2)c2ccc(C(=O)NS(=O)(=O)C3CC3)cc21 (centres unmarked),20 to 1000 nM
7,CCc1ccc2c(c1)C1CC1(C(=O)N1CCOCC1)Cn1c-2c(C2CCCCC2)c2ccc(C(=O)O)cc21 (centres unmarked),20 to 1000 nM
8,CCOc1ccc2c(c1)C1CC1(C(=O)N1CCOCC1)Cn1c-2c(C2CCCCC2)c2ccc(C(=O)NS(=O)(=O)N(C)C)cc21 (centres unmarked),20 to 1000 nM
9,COc1ccc2c(c1)[C@@H]1C[C@]1(C(=O)N1CCCC[C@H]1CN(C)C)Cn1c-2c(C2CCCCC2)c2ccc(C(=O)NS(=O)(=O)N(C)C)cc21,97 to 1000 nM
10,COC(=O)c1ccc2c(C3CCCCC3)c3n(c2c1)CC1(C(=O)N2CCOCC2)CC1c1cc(OC(C)C)ccc1-3 (centres unmarked),20 to 1000 nM
11,CCc1ccc2c(c1)C1CC1(C(=O)N1CCOCC1)Cn1c-2c(C2CCCCC2)c2ccc(C(=O)NS(=O)(=O)N(C)C)cc21 (centres unmarked),20 to 1000 nM
12,COc1ccc2c(c1)C1C[C@]1(C(=O)N[C@@H]1C3CCC(C)([C@@H]1O)C3(C)C)Cn1c-2c(C2CCCCC2)c2ccc(C(=O)NS(=O)(=O)N(C)C)cc21 (some centres unmarked),20 to 1000 nM
13,COc1ccc2c(c1)C1CC1(C(=O)N1CCOCC1)Cn1c-2c(C2CCCCC2)c2ccc(C(=O)NS(=O)(=O)C3CC3)cc21 (centres unmarked),20 to 1000 nM
14,CC(C)Oc1ccc2c(c1)C1CC1(C(=O)N1CCOCC1)Cn1c-2c(C2CCCCC2)c2ccc(C(=O)NS(=O)(=O)N(C)C)cc21 (centres unmarked),20 to 1000 nM
15,COc1ccc2c(c1)C1CC1(C(=O)N(C)C)Cn1c-2c(C2CCCCC2)c2ccc(C(=O)NS(=O)(=O)N(C)C)cc21 (centres unmarked),20 to 1000 nM
16,COc1ccc2c(c1)C1C[C@]1(C(=O)O)Cn1c-2c(C2CCCCC2)c2ccc(C(=O)NS(=O)(=O)N(C)C)cc21 (some centres unmarked),1000 to 10000 nM
17,COC(=O)C12CC1c1cc(OC)ccc1-c1c(C3CCCCC3)c3ccc(C(=O)OC(C)(C)C)cc3n1C2 (centres unmarked),> 10000 nM

# Tested on: HCV
# Assay: not given
# Conditions: HCV patients, combination therapy; cited from earlier work
row,Molecule,sustained efficacy
1,alpha-interferon and ribavirin,40 % of patients
